In patent US11382882B2 (priority 2010, dated 2022):
“Also recorded” adds a separate entry of the source.

Experiments:
MRSA strain USA300 = test: microbe, parasite or virus in culture; settings: Staphylococcus aureus, 6 h; for hemolysis at 1 µg/mL: read-out: ELISA α-hemolysin inhibition 1 μg/mL; for hemolysis at 10 µg/mL: read-out: ELISA α-hemolysin inhibition 10 μg/mL
RNAIII gene expression = RNAIII gene expression in MRSA strain USA300 (FIG. 7); format: cell-based, Staphylococcus aureus
AgrA gene expression = AgrA gene expression in MRSA strain USA300 (FIG. 5); format: cell-based, Staphylococcus aureus
AgrC gene expression = AgrC gene expression in MRSA strain USA300 (FIG. 6); format: cell-based, Staphylococcus aureus
[1] = system: α-hemolysin gene expression; format: cell-based, Staphylococcus aureus
[2] = system: phenol-soluble modulin-a (psma) gene expression; test: phenol-soluble modulin-a (psma) gene expression in MRSA strain USA300 (FIG. 4); format: cell-based, Staphylococcus aureus
hla transcription = hla transcription by qRT-PCR (FIG. 9A); settings: 6 h, versus DMSO; for transcription of hla (qRT-PCR, in words): 10 and 50 μg/ml, 37° C.
Procedure: (§1) The effect of the compounds VII, X, XII, and XV on the transcription of hla and RNAIII was measured by qRT-PCR. S. aureus USA300 was incubated at 37° C. for 6 h in the presence of 0, 10, or 50 μg/ml of the compounds. The cultures were harvested, and total RNA was isolated using the RiboPure—bacterial RNA isolation kit (Ambion) with additional DNase I treatment. RNA yield and purity were assessed by measuring the ratio of UV absorbance at 260 and 280 nm, and the integrity of the RNA was assessed on a 1% denaturing agarose gel. High integrity RNA had two clear bands without smearing, indicating no fragmentation of 23S and 16S rRNA.
(§2) Real-time RT-PCR reactions were conducted using a SYBR—green mix (Bio-Rad). The data were analyzed using the ΔΔC2 and are represented as log2 of the treated sample/control sample (DMSO only).

RNAIII transcription = RNAIII transcription by qRT-PCR (FIG. 9B); settings: 10 or 50 μg/ml; 37° C., 6 h; versus DMSO
Procedure: as §1, §2

Procedure for Streptococcus pyogenes: During the first phase of in vitro testing the concentration of the compounds was kept constant at 100 mg/L in 2% DMSO.

## O=C(O)c1c(F)c(F)cc2ccccc12 [III]
MRSA strain USA300
  hemolysis at 1 µg/mL: 20.8 ± 3.5%
  hemolysis at 10 µg/mL: 28.3 ± 3.4%

## O=C(O)c1c(O)c(O)cc2ccccc12 [II]
RNAIII gene expression
  RNAIII gene expression: inhibit
AgrA gene expression
  AgrA gene expression: inhibit
AgrC gene expression
  AgrC gene expression: inhibit
[1]
  α-hemolysin gene expression: inhibit
[2]
  phenol-soluble modulin-a (psma) gene expression: inhibit
MRSA strain USA300
  hemolysis at 1 µg/mL: 21.3 ± 5.2%
  hemolysis at 10 µg/mL: 76 ± 1.2%
Streptococcus pyogenes
  rabbit blood hemolysis inhibition in Streptococcus pyogenes (in words): active

## O=C(/C=C/c1ccc2c(c1)OCO2)c1ccccc(=O)c1O [IV]
MRSA strain USA300
  hemolysis at 1 µg/mL: 40.2 ± 5.2%
  hemolysis at 10 µg/mL: 73.6 ± 2.2%

## COc1cc(O)c(C(=O)c2ccccc2)cc1S(=O)(=O)O [IX]
MRSA strain USA300
  hemolysis at 10 µg/mL: 41.9 ± 8.2%
Streptococcus pyogenes
  rabbit blood hemolysis inhibition in Streptococcus pyogenes (in words): active

## O=C1Nc2cccc3cc(O)cc1c23 [I]
MRSA strain USA300
  hemolysis at 1 µg/mL: 28 ± 4.4%
  hemolysis at 10 µg/mL: 65 ± 2.5%

## O=C(O)c1ccc2cc(F)ccc2c1 [VIII]
MRSA strain USA300
  hemolysis at 10 µg/mL: 56.3 ± 1.7%

## O=C(O)c1ccc(-c2ccc(O)c(F)c2)cc1 [VII]
RNAIII gene expression
  RNAIII gene expression: inhibit
AgrA gene expression
  AgrA gene expression: inhibit
AgrC gene expression
  AgrC gene expression: inhibit
Hla transcription
  transcription of hla (qRT-PCR, in words): reduced
[1]
  α-hemolysin gene expression: inhibit
[2]
  phenol-soluble modulin-a (psma) gene expression: inhibit
MRSA strain USA300
  hemolysis at 1 µg/mL: 31.3 ± 9%
  hemolysis at 10 µg/mL: 61 ± 14.8%
Streptococcus pyogenes
  rabbit blood hemolysis inhibition in Streptococcus pyogenes (in words): active

## CCc1cc(C(=O)COc2ccccc2)c(O)cc1O [VI]
AgrA gene expression
  AgrA gene expression: inhibit
[1]
  α-hemolysin gene expression: inhibit
MRSA strain USA300
  hemolysis at 1 µg/mL: 55.2 ± 5.8%
  hemolysis at 10 µg/mL: 76.3 ± 11.2%
Streptococcus pyogenes
  rabbit blood hemolysis inhibition in Streptococcus pyogenes (in words): active

## COc1cc(C(=O)N/N=C/c2cccc3ccccc23)ccc1O [V]
RNAIII gene expression
  RNAIII gene expression: inhibit
AgrA gene expression
  AgrA gene expression: inhibit
AgrC gene expression
  AgrC gene expression: inhibit
[1]
  α-hemolysin gene expression: inhibit
[2]
  phenol-soluble modulin-a (psma) gene expression: inhibit
MRSA strain USA300
  hemolysis at 1 µg/mL: 23 ± 1.3%
  hemolysis at 10 µg/mL: 88.4 ± 1.5%
Streptococcus pyogenes
  rabbit blood hemolysis inhibition in Streptococcus pyogenes (in words): active

## O=C(O)c1cc(-c2ccc(F)cc2F)ccc1O [X, diflunisal, reference compound]
RNAIII gene expression
  RNAIII gene expression: inhibit
AgrA gene expression
  AgrA gene expression: inhibit
AgrC gene expression
  AgrC gene expression: inhibit
Hla transcription; 50 μg/mL
  reduction of hla expression: ~3000 fold
Hla transcription
  transcription of hla (qRT-PCR, in words): reduced
[1]
  α-hemolysin gene expression: inhibit
[2]
  phenol-soluble modulin-a (psma) gene expression: inhibit
RNAIII transcription
  RNAIII expression (qRT-PCR, in words): significant reduction; also recorded: reduced
MRSA strain USA300
  hemolysis at 1 µg/mL: 33 ± 3.6%
  hemolysis at 10 µg/mL: 62.3 ± 1.8%
Streptococcus pyogenes
  rabbit blood hemolysis inhibition in Streptococcus pyogenes (in words): active

## O=C(O)c1cc(-c2cccc(F)c2)ccc1O [XIII]
MRSA strain USA300
  hemolysis at 10 µg/mL: 35.6 ± 12.5%

## O=C(O)c1ccc(Oc2ccc(F)cc2)cc1 [XII]
Hla transcription
  transcription of hla (qRT-PCR, in words): reduced
MRSA strain USA300
  hemolysis at 10 µg/mL: 29.1 ± 11%

## O=C(c1ccccc1)c1ccc(O)cc1O [XIV]
MRSA strain USA300
  hemolysis at 10 µg/mL: 26.7%

## O=C(O)c1ccc(Oc2ccc(Cl)cc2)cc1 [XI]
MRSA strain USA300
  hemolysis at 10 µg/mL: 36.3 ± 8.2%

## O=C(O)c1ccc(-c2ccc(F)cc2)cc1 [XVI]
RNAIII gene expression
  RNAIII gene expression: inhibit
AgrA gene expression
  AgrA gene expression: inhibit
AgrC gene expression
  AgrC gene expression: inhibit
Hla transcription
  transcription of hla (qRT-PCR, in words): reduced
[1]
  α-hemolysin gene expression: inhibit
[2]
  phenol-soluble modulin-a (psma) gene expression: inhibit
MRSA strain USA300
  hemolysis at 1 µg/mL: 0%
  hemolysis at 10 µg/mL: 68.8 ± 11.3%
Streptococcus pyogenes
  rabbit blood hemolysis inhibition in Streptococcus pyogenes (in words): active

## O=C(O)c1cccc(-c2ccccc2)c1O [XV]
RNAIII gene expression
  RNAIII gene expression: inhibit
AgrA gene expression
  AgrA gene expression: inhibit
AgrC gene expression
  AgrC gene expression: inhibit
[1]
  α-hemolysin gene expression: inhibit
[2]
  phenol-soluble modulin-a (psma) gene expression: inhibit
MRSA strain USA300
  hemolysis at 1 µg/mL: 49.4 ± 4.6%
  hemolysis at 10 µg/mL: 53 ± 5.9%
Streptococcus pyogenes
  rabbit blood hemolysis inhibition in Streptococcus pyogenes (in words): active
